In publication PMC3094488 (European journal of pharmacology, 2011):
“And” between values parts separate entries of the source, which are not always exact repeats. Equal entries are not always repeated.

Tests used:
CB1 receptors [1] = target: T1, CB1 receptors (Mus musculus, UniProt P47746); experiment: Inhibition of EPSCs; assay type: cell-based; details: for maximal suppression of EPSC, % of baseline: at 1 μM, mean ± S.E.M.; for IC50: read-out: IC50 of EPSC suppression, autaptic hippocampal neurons, mean (95% CI)
T1 sequence (P47746 whole entry): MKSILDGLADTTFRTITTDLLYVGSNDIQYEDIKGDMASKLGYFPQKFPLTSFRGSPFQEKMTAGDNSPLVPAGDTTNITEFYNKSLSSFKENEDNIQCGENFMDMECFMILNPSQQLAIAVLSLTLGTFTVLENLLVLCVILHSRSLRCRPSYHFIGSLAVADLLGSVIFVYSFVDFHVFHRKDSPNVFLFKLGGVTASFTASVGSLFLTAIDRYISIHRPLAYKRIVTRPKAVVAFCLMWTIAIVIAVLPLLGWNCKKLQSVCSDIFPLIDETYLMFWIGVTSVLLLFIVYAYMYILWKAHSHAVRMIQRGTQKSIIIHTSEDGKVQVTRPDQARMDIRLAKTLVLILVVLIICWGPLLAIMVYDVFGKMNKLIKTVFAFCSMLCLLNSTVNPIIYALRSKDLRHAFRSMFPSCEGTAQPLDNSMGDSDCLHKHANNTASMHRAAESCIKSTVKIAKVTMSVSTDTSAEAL

CB1 receptors [2] = target: CB1 receptors (Rattus norvegicus, UniProt P20272); experiment: CB1 receptor internalization in HEK293 cells stably expressing CB1; assay type: cell-based; details: for plateau / maximal internalization in time course: 100 nM drug, up to 6 hours; for plateau / maximal internalization in time course / maximal internalization (Emax): mean ± S.E.M.; for maximal internalization (Emax) / EC50: 2 hour treatment; for maximal internalization (Emax): at 1 μM; for EC50: read-out: EC50 of CB1 internalization, mean (95% CI)
Sequence of CB1 receptors (Rattus norvegicus, UniProt P20272) (P20272 whole entry): as the sequence (P47746 whole entry) above, with D95E counted along it

CB1 receptors [3] = target: T1, CB1 receptors; details: at 1 μM; ref Atwood et al., 2010; cited from earlier work

| Compound | maximal suppression of EPSC, % of baseline (CB1 receptors [1]) | IC50 (CB1 receptors [1]) [nM] | plateau / maximal internalization in time course (CB1 receptors [2]) | maximal internalization (Emax) (CB1 receptors [2]) | EC50 (CB1 receptors [2]) [nM] | maximal decrease of EPSC magnitude (CB1 receptors [3]) [%] |
| --- | --- | --- | --- | --- | --- | --- |
| CCCCCCCC(C)(C)c1ccc([C@H]2CCC[C@@H](O)C2)c(O)c1 [CP47,497-C8] | 51.6 ± 8.0 % of baseline and 51.6 % of baseline | 15.4 | 51.4 ± 2.2 % of basal surface levels | 52.7 ± 4.3 % of basal surface levels | 4.4 |  |
| CCCCCn1cc(C(=O)c2cccc3ccccc23)c2ccccc21 [JWH018] |  |  | 50.7 ± 2.6 % of basal surface levels | 45.2 ± 2.0 % of basal surface levels | 10.1 | 48.0 |
| CCCCn1cc(C(=O)c2cccc3ccccc23)c2ccccc21 [JWH073] | 31.5 ± 4.0 % of baseline | 49.4 | 57.5 ± 3.1 % of basal surface levels | 61.2 ± 2.5 % of basal surface levels | 45.6 |  |
| CCCCCCCC(C)(C)c1ccc([C@H]2CCC[C@@H](O)C2)c(O)c1 [cis-CP47,497-C8] |  |  | 48.4 ± 2.4 % of basal surface levels | 53.8 ± 2.4 % of basal surface levels | 1.9 |  |
| CCCCCCCC(C)(C)c1ccc([C@@H]2CCC[C@@H](O)C2)c(O)c1 [trans-CP47,497-C8] |  |  | 47.7 ± 3.1 % of basal surface levels | 54.9 ± 3.7 % of basal surface levels | 2.7 |  |
